# From patent US9663473B2 (Actelion Pharmaceuticals Ltd, priority 2013, dated 2017)
# Target: T1, recombinant human ALX receptor (Homo sapiens, UniProt P25090)
# T1 construct: expressed in transfected cells; host or cells: HEK293 (HEK293-hALXR-Gα16)
# T1 sequence (P25090 1-351): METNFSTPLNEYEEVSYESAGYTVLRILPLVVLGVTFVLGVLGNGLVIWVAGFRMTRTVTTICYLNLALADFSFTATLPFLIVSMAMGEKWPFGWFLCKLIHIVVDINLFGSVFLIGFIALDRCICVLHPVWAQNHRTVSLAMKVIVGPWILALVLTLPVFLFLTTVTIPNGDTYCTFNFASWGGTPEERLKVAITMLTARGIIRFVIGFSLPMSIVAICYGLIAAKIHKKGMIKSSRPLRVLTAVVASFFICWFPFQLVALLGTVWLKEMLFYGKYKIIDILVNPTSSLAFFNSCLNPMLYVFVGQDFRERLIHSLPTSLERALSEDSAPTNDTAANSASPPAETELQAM
# Test: Intracellular calcium measurements (FLIPR), ALX receptor agonistic activity
# Assay type: cell-based
# Settings: HEK293-hALXR-Gα16 cells, Fluo-4 calcium signal, normalized to WKYMVm 10 nM
# How it was run: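 Agonist-induced calcium flux was read by FLIPR (488/540 nm) as baseline-subtracted peak emission, expressed relative to WKYMVm at 10 nM final. Cells used: HEK293-hALXR-Gα16, dye-loaded 60 min at 37° C. with 1 μM Fluo-4 AM before compound dose-response addition.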
row,SMILES,EC50
1,"COc1cc(F)c(CC(NC(=O)NC23CCC(O)(CC2)CC3)c2nc3ccccc3[nH]2)cc1F (centres unmarked) [Example 249, 1-(1-(1H-Benzo[d]imidazol-2-yl)-2-(2,5-difluoro-4-methoxyphenyl)ethyl)-3-(4-hydroxybicyclo[2.2.2]octan-1-yl)urea]",0.0042 µM
2,"O=C(NC(Cc1ccc(Br)cc1F)c1nc2ccccc2[nH]1)NC12CCC(O)(CC1)CC2 (centres unmarked) [Example 254, 1-(1-(1H-Benzo[d]imidazol-2-yl)-2-(4-bromo-2-fluorophenyl)ethyl)-3-(4-hydroxybicyclo[2.2.2]octan-1-yl)urea]",0.021 µM
3,"C[C@]1(O)CC[C@H](NC(=O)N[C@H](Cc2ccc(C(F)(F)F)cc2)c2nc3ccccc3[nH]2)CC1 [Example 256, 1-((R)-1-(1H-Benzo[d]imidazol-2-yl)-2-(4-(trifluoromethyl)phenyl)ethyl)-3-(trans-4-hydroxy-4-methylcyclohexyl)urea]",0.013 µM
4,"COc1ccc(C[C@@H](NC(=O)NCc2ccccn2)c2nc3ccccc3[nH]2)cc1 [Example 268, (R)-1-(1-(1H-Benzo[d]imidazol-2-yl)-2-(4-methoxyphenyl)ethyl)-3-(pyridin-2-ylmethyl)urea]",0.659 µM
5,"COc1ccc(C[C@@H](NC(=O)NCCc2ccc(C(F)(F)F)cc2)c2nc3ccccc3[nH]2)cc1 [Example 269, (R)-1-(1-(1H-Benzo[d]imidazol-2-yl)-2-(4-methoxyphenyl)ethyl)-3-(4-(trifluoromethyl)phenethyl)urea]",0.471 µM
6,"COc1ccc(C[C@@H](NC(=O)NC(C)(C)c2ccc(C)cc2)c2nc3ccccc3[nH]2)cc1 [Example 270, (R)-1-(1-(1H-Benzo[d]imidazol-2-yl)-2-(4-methoxyphenyl)ethyl)-3-(2-(p-tolyl)propan-2-yl)urea]",0.225 µM
7,"COc1ccc(C[C@@H](NC(=O)NCc2ccc(CN(C)C)cc2)c2nc3ccccc3[nH]2)cc1 [Example 272, (R)-1-(1-(1H-Benzo[d]imidazol-2-yl)-2-(4-methoxyphenyl)ethyl)-3-(4-((dimethylamino)methyl)benzyl)urea]",0.339 µM
8,"COc1ccc(C[C@@H](NC(=O)NCc2cccc(C)c2)c2nc3ccccc3[nH]2)cc1 [Example 276, (R)-1-(1-(1H-Benzo[d]imidazol-2-yl)-2-(4-methoxyphenyl)ethyl)-3-(3-methylbenzyl)urea]",0.229 µM
9,"COc1ccc(C[C@@H](NC(=O)NCC2(c3ccccc3)CCCCC2)c2nc3ccccc3[nH]2)cc1 [Example 278, (R)-1-(1-(1H-Benzo[d]imidazol-2-yl)-2-(4-methoxyphenyl)ethyl)-3-((1-phenylcyclohexyl)methyl)urea]",0.051 µM
10,"CCC(NC(=O)N[C@H](Cc1ccc(OC)cc1)c1nc2ccccc2[nH]1)c1ccccc1 (stereo partly drawn) [Example 279, 1-((R)-1-(1H-Benzo[d]imidazol-2-yl)-2-(4-methoxyphenyl)ethyl)-3-(1-phenylpropyl)urea]",0.04 µM
11,"COc1ccc(C[C@@H](NC(=O)NC[C@@H](O)c2ccccc2)c2nc3ccccc3[nH]2)cc1 [Example 281, 1-((R)-1-(1H-Benzo[d]imidazol-2-yl)-2-(4-methoxyphenyl)ethyl)-3-((S)-2-hydroxy-2-phenylethyl)urea]",0.105 µM
12,"COc1ccc(C[C@@H](NC(=O)NCC2COc3cnccc32)c2nc3ccccc3[nH]2)cc1 (stereo partly drawn) [Example 282, 1-((R)-1-(1H-Benzo[d]imidazol-2-yl)-2-(4-methoxyphenyl)ethyl)-3-((2,3-dihydrofuro[2,3-c]pyridin-3-yl)methyl)urea]",0.351 µM
13,"COc1ccc(C[C@@H](NC(=O)NC2(c3cccc(Cl)c3)CC2)c2nc3ccccc3[nH]2)cc1 [Example 283, (R)-1-(1-(1H-Benzo[d]imidazol-2-yl)-2-(4-methoxyphenyl)ethyl)-3-(1-(3-chlorophenyl)cyclopropyl)urea]",0.295 µM
14,"COc1ccc(C[C@@H](NC(=O)NCc2ccn(-c3ccccc3)n2)c2nc3ccccc3[nH]2)cc1 [Example 284, (R)-1-(1-(1H-Benzo[d]imidazol-2-yl)-2-(4-methoxyphenyl)ethyl)-3-((1-phenyl-1H-pyrazol-3-yl)methyl)urea]",0.353 µM
15,"COc1ccc(C[C@@H](NC(=O)NCc2ncccc2C)c2nc3ccccc3[nH]2)cc1 [Example 287, (R)-1-(1-(1H-Benzo[d]imidazol-2-yl)-2-(4-methoxyphenyl)ethyl)-3-((3-methylpyridin-2-yl)methyl)urea]",0.092 µM
16,"CCn1ccc(C(C)NC(=O)N[C@H](Cc2ccc(OC)cc2)c2nc3ccccc3[nH]2)n1 (stereo partly drawn) [Example 289, 1-((R)-1-(1H-Benzo[d]imidazol-2-yl)-2-(4-methoxyphenyl)ethyl)-3-(1-(1-ethyl-1H-pyrazol-3-yl)ethyl)urea]",0.059 µM
17,"COc1ccc(C[C@@H](NC(=O)NCc2ncc(Br)cc2F)c2nc3ccccc3[nH]2)cc1 [Example 291, (R)-1-(1-(1H-Benzo[d]imidazol-2-yl)-2-(4-methoxyphenyl)ethyl)-3-((5-bromo-3-fluoropyridin-2-yl)methyl)urea]",0.439 µM
18,"COc1ccc(C[C@@H](NC(=O)NC(c2ccccn2)C(F)(F)F)c2nc3ccccc3[nH]2)cc1 (stereo partly drawn) [Example 292, 1-((R)-1-(1H-Benzo[d]imidazol-2-yl)-2-(4-methoxyphenyl)ethyl)-3-(2,2,2-trifluoro-1-(pyridin-2-yl)ethyl)urea]",0.081 µM

# Further compounds by falling EC50, results first:
row,EC50,SMILES
1,0.853 µM,"COc1ccc(C[C@@H](NC(=O)NCc2ccncc2)c2nc3ccccc3[nH]2)cc1 [Example 288, (R)-1-(1-(1H-Benzo[d]imidazol-2-yl)-2-(4-methoxyphenyl)ethyl)-3-(pyridin-4-ylmethyl)urea]"
2,0.284 µM,"COc1ccc(C[C@@H](NC(=O)NCCc2cnccn2)c2nc3ccccc3[nH]2)cc1 [Example 285, (R)-1-(1-(1H-Benzo[d]imidazol-2-yl)-2-(4-methoxyphenyl)ethyl)-3-(2-(pyrazin-2-yl)ethyl)urea]"
3,0.25 µM,"COc1ccc(C[C@@H](NC(=O)NCCc2cccnc2)c2nc3ccccc3[nH]2)cc1 [Example 280, (R)-1-(1-(1H-Benzo[d]imidazol-2-yl)-2-(4-methoxyphenyl)ethyl)-3-(2-(pyridin-3-yl)ethyl)urea]"
4,0.234 µM,"COc1ccc(C[C@@H](NC(=O)NCc2cccc(C(F)(F)F)c2Cl)c2nc3ccccc3[nH]2)cc1 [Example 273, (R)-1-(1-(1H-Benzo[d]imidazol-2-yl)-2-(4-methoxyphenyl)ethyl)-3-(2-chloro-3-(trifluoromethyl)benzyl)urea]"
5,0.126 µM,"COc1ccc(C[C@@H](NC(=O)NCCc2ccc(C)c(C)c2)c2nc3ccccc3[nH]2)cc1 [Example 275, (R)-1-(1-(1H-Benzo[d]imidazol-2-yl)-2-(4-methoxyphenyl)ethyl)-3-(3,4-dimethylphenethyl)urea]"
6,0.12 µM,"COc1ccc(C[C@@H](NC(=O)NC(C)c2ccc(OC(F)F)cc2)c2nc3ccccc3[nH]2)cc1 (stereo partly drawn) [Example 271, 1-((R)-1-(1H-Benzo[d]imidazol-2-yl)-2-(4-methoxyphenyl)ethyl)-3-(1-(4-(difluoromethoxy)phenyl)ethyl)urea]"
7,0.115 µM,"COc1ccc(C[C@@H](NC(=O)NCCc2ccccc2C(F)(F)F)c2nc3ccccc3[nH]2)cc1 [Example 274, (R)-1-(1-(1H-Benzo[d]imidazol-2-yl)-2-(4-methoxyphenyl)ethyl)-3-(2-(trifluoromethyl)phenethyl)urea]"
8,0.102 µM,"COc1ccc(C[C@@H](NC(=O)NCCN2CCc3ccccc32)c2nc3ccccc3[nH]2)cc1 [Example 286, (R)-1-(1-(1H-Benzo[d]imidazol-2-yl)-2-(4-methoxyphenyl)ethyl)-3-(2-(indolin-1-yl)ethyl)urea]"
9,0.082 µM,"COc1ccc(C[C@@H](NC(=O)NC2(c3ccc(C)cc3)CC2)c2nc3ccccc3[nH]2)cc1 [Example 277, (R)-1-(1-(1H-Benzo[d]imidazol-2-yl)-2-(4-methoxyphenyl)ethyl)-3-(1-(p-tolyl)cyclopropyl)urea]"
10,0.037 µM,"COc1ccc(C[C@@H](NC(=O)NC[C@H](O)c2ccccc2)c2nc3ccccc3[nH]2)cc1 [Example 290, 1-((R)-1-(1H-Benzo[d]imidazol-2-yl)-2-(4-methoxyphenyl)ethyl)-3-((R)-2-hydroxy-2-phenylethyl)urea]"
11,0.027 µM,"O=C(N[C@H](Cc1ccc(C(F)(F)F)cc1)c1nc2ccccc2[nH]1)NC12CCC(O)(CC1)CC2 [Example 255, (R)-1-(1-(1H-Benzo[d]imidazol-2-yl)-2-(4-(trifluoromethyl)phenyl)ethyl)-3-(4-hydroxybicyclo[2.2.2]octan-1-yl)urea]"
12,0.014 µM,"O=C(N[C@H](Cc1ccc(C(F)(F)F)cc1)c1nc2cc(F)ccc2[nH]1)NC12CCC(O)(CC1)CC2 [Example 267, (R)-1-(1-(5-Fluoro-1H-benzo[d]imidazol-2-yl)-2-(4-(trifluoromethyl)phenyl)ethyl)-3-(4-hydroxybicyclo[2.2.2]octan-1-yl)urea]"
13,0.0066 µM,"COc1ccc(CC(NC(=O)NC23CCC(O)(CC2)CC3)c2nc3ccccc3[nH]2)c(F)c1F (centres unmarked) [Example 251, 1-(1-(1H-Benzo[d]imidazol-2-yl)-2-(2,3-difluoro-4-methoxyphenyl)ethyl)-3-(4-hydroxybicyclo[2.2.2]octan-1-yl)urea]"
14,0.0047 µM,"O=C(N[C@H](Cc1ccc(C(F)(F)F)cc1)c1nc2cc(F)ccc2[nH]1)N[C@H]1CC[C@H](O)CC1 [Example 265, 1-((R)-1-(5-Fluoro-1H-benzo[d]imidazol-2-yl)-2-(4-(trifluoromethyl)phenyl)ethyl)-3-(trans-4-hydroxycyclohexyl)urea]"
